US9505772B2, “Aromatic ring compound” (TAKEDA PHARMACEUTICAL COMPANY LIMITED, priority 2012, dated 2016)

Legend:
human MCHR1 [1] = target: T1, human MCHR1 (Homo sapiens, UniProt Q99705); assay: Human MCH receptor 1 (MCHR1) binding inhibitory activity, binding assay with [125I]-MCH(4-19); settings: test compound 0.1 μM, human MCHR1-expressing CHO cell membrane fraction, read-out: Binding inhibition rate % (0.1 μM)
T1 construct: expressed in transfected cells; host or cells: CHO cell clone 57 (described in WO01/82925); membrane fraction
T1 sequence (Q99705 whole entry): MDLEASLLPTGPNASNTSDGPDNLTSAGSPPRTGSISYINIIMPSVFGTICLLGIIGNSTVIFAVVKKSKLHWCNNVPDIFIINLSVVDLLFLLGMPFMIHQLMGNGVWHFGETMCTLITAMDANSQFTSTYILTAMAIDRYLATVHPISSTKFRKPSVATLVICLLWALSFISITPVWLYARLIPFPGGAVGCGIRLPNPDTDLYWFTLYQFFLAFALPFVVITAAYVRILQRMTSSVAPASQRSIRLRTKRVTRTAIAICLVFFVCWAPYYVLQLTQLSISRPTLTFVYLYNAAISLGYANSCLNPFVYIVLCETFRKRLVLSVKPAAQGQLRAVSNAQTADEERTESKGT
Method: Determination of Human MCH Receptor 1 (MCHR1) Binding Inhibitory Activity of Test Compound Using Binding Assay
1. Preparation of Membrane Fraction
Using human MCHR1(=SLC-1 receptor)-expressing CHO cell clone 57 described in WO01/82925, MCHR1-expressing CHO cellular membrane fractions were prepared by the following method.
In phosphate buffered saline (pH 7.4) supplemented with 5 mM EDTA (ethylenediaminetetraacetic acid) were respectively suspended human MCHR1-expressing CHO cells (1×10^8 cells) and centrifuged. Homogenate buffer (10 mL, 10 mM NaHCO3, 5 mM EDTA, pH 7.5, 0.5 mM PMSF (phenylmethylsulfonyl fluoride), 20 mg/L leupeptin, 4 mg/L E-64, 1 mg/L pepstatin A) was added to the pellets of the cells and, using Polytron Homogenizer, the mixture was homogenated. The supernatant obtained after centrifugation at 400×g for 10 min was further centrifuged at 100,000×g for 1 hr to give precipitate of the membrane fraction. The precipitate were suspended in 2 mL of assay buffer [20 mM Tris-HCl (pH 7.5), 5 mM EDTA, 0.5 mM PMSF, 20 mg/L leupeptin, 4 mg/L E-64, 1 mg/L pepstatin A]. The membrane fractions were suspended in assay buffer to a protein concentration of 2 mg/mL, and after dispensing, preserved at −80° C. and used upon thawing each time when in use.
The MCHR1 ligand binding inhibitory activity of the test compound was determined as follows.
An MCHR1-expressing CHO cellular membrane fraction (173 μL) diluted with an assay buffer was dispensed to a 96 well polypropylene plate (3363, Corning). DMSO solution (2 μL), 33 μM cold MCH(1-19) diluted with DMSO solution (2 μL), or a test compound solution diluted with DMSO solution to various concentrations (2 μL) was added, and lastly, [^125I]-MCH(4-19) diluted with assay buffer (hereinafter, sometimes to be referred to as “hot MCH”, 25 μL) was added to each well. The mixture was reacted with stirring at room temperature for 1 hr, and the plate was set on FilterMate Harvester (PerkinElmer). Using a treating glass filter plate (GF/C, PerkinElmer) with polyethyleneimine, which had been previously set, the plate was suction-filtered and washed three times with washing buffer (50 mM Tris-HCl buffer pH 7.5). The glass filter plate was dried, MicroScinti0 (PerkinElmer) was added at 25 μL/well, and the resulting radioactivity was measured by TopCount liquid scintillation counter (PerkinElmer). The binding inhibition rate of the test compound was calculated by the following formula. Binding inhibition (%)=100−(radioactivity upon addition of test compound and hot MCH−radioactivity upon addition of cold MCH and hot MCH solution)/(radioactivity upon addition of DMSO solution and hot MCH−radioactivity upon addition of cold MCH and hot MCH solution)×100
The binding inhibition rates (%) of test compounds (0.1 μM) as measured using human MCHR1-expressing CHO cell are shown in Table 2.

human MCHR1 [2] = target: T1, human MCHR1; assay: MCH receptor 1 antagonistic activity, Ca2+ mobilization assay; format: cell-based; settings: test compound 0.1 μM; human MCHR1-expressing CHO cells (clone #4); MCH(4-19) 2 nM; read-out: Inhibition rate % (0.1 μM)
Method: Measurement of MCH Receptor 1 Antagonistic Activity of Test Compound Using Ca^2+ Mobilization Assay
Using an expression vector plasmid introduced with human MCHR1 gene for expression in animal cells, human MCHR1 gene was introduced into CHO cells (CHO dhfr^−) by Lipofectamine LTX (Invitrogen). The cells were cultured in selection MEMα medium [445 mL of MEMα medium without nucleic acid and added with 5 mL of Penicillin-Streptomycin (Invitrogen) and 50 mL of dialyzed fetal bovine serum]. Colony 24 clones grown in the selection medium, which were human MCHR1 gene-expressing CHO cell candidates, were selected. […] In the following test, this human MCHR1-expressing CHO cell (clone #4) was used. An integrated dispensing function fluorometer (CellLux, PerkinElmer) was used for Ca^2+ mobilization assay. The CHO cells were sown in a 96 well plate (type 3904, Corning) with a black wall and clear well bottom at a density of 20000 cells/well, and cultured in an incubator for about 24 hr at 5% CO2, 37° C. The medium was removed, and the cells were washed with phosphate buffered saline (PBS). A Ca^2+ indicator dye reagent (DOJINDO LABORATORIES, Ca screening no-wash kit Fluo4) was added at 100 μL/well, and the dye was allowed to penetrate into the cell for 30 min in an incubator at 5% CO2, 37° C. The plate was set on a plate reader. First, a test compound solution diluted with an assay buffer [10 mM HEPES (pH 7.4), 1× assay buffer containing 0.1% BSA (DOJINDO LABORATORIES, attached to Ca screening no-wash kit Fluo4)] or DMSO solution was added at 50 μL/well, and then ligand MCH (4-19) peptide (final concentration 2 nM) diluted with assay buffer or DMSO was added at 50 μL/well, during which changes in intracellular fluorescence were measured at 2 second intervals. The antagonistic activity of the test compound was calculated by the following formula and shown as an inhibition rate (%) wherein the intracellular fluorescence activity resulting from the stimulation by the addition of ligand MCH (4-19) peptide was 100% and that of the well added with DMSO solution alone was 0%. inhibitory rate (%)=100−[fluorescence activity upon addition of test compound and MCH(4-19) peptide solution−fluorescence activity upon addition of DMSO solution only]/[fluorescence activity upon addition of DMSO solution and MCH(4-19) peptide solution−fluorescence activity upon addition of DMSO solution only]×100
The inhibition rates (%) of test compounds (0.1 μM) as antagonist activity measured using human MCHR1-expressing CHO cells (clone #4) are shown in the following Table 3.

Structure (SMILES)	inhibition at 0.1 µM (human MCHR1 [1])	inhibition at 0.1 µM (human MCHR1 [2])
COc1cc(-n2ccc3oc(-c4ccc(Cl)cc4)cc3c2=O)ccc1OCC1(C)COC1 [Example 41, 2-(4-Chlorophenyl)-5-(3-methoxy-4-((3-methyloxetan-3-yl)methoxy)phenyl)furo[3,2-c]pyridin-4(5H)-one]	97%	92%
COc1cc(-n2ccc3oc(-c4ccc(Cl)cc4)cc3c2=O)ccc1OCC1CCCO1 (stereo not shown) [Example 36, 2-(4-Chlorophenyl)-5-(3-methoxy-4-(tetrahydrofuran-2-ylmethoxy)phenyl)furo[3,2-c]pyridin-4(5H)-one]	95%	78%
COc1cc(-n2ccc3oc(-c4ccc(Cl)cc4)cc3c2=O)ccc1OCC(C)(C)O [Example 7, 2-(4-Chlorophenyl)-5-(4-(2-hydroxy-2-methylpropoxy)-3-methoxyphenyl)furo[3,2-c]pyridin-4(5H)-one]	97%	106%

The next lines start with the values.

inhibition at 0.1 µM (human MCHR1 [1])	inhibition at 0.1 µM (human MCHR1 [2])	Structure (SMILES)
85%	45%	COc1cc(-n2ccc3oc(-c4ccc(Cl)cc4)cc3c2=O)ccc1OCC1CC1(F)F (stereo not shown) [Example 44, 2-(4-Chlorophenyl)-5-(4-((2,2-difluorocyclopropyl)methoxy)-3-methoxyphenyl)furo[3,2-c]pyridin-4(5H)-one]
77%	88%	COc1cc(-n2ccc3oc(-c4ccc(Cl)cn4)cc3c2=O)ccc1OCC1(C#N)CC1 [Example 19, 1-((4-(2-(5-Chloropyridin-2-yl)-4-oxofuro[3,2-c]pyridin-5(4H)-yl)-2-methoxyphenoxy)methyl)cyclopropanecarbonitrile]
81%	94%	COc1ccc(-n2ccc3oc(-c4ccc(Cl)cc4)cc3c2=O)cc1OC [Example 2, 2-(4-Chlorophenyl)-5-(3,4-dimethoxyphenyl)furo[3,2-c]pyridin-4(5H)-one]
73%	72%	COc1cc(-n2ccc3oc(-c4ccc(Cl)cc4)cc3c2=O)cnc1OCC1(C#N)CC1 [Example 23, 1-(((5-(2-(4-Chlorophenyl)-4-oxofuro[3,2-c]pyridin-5(4H)-yl)-3-methoxypyridin-2-yl)oxy)methyl)cyclopropanecarbonitrile]
83%	86%	COc1cc(-n2ccc3oc(-c4ccc(F)cc4)cc3c2=O)ccc1OCC1(C#N)CC1 [Example 10, 1-((4-(2-(4-Fluorophenyl)-4-oxofuro[3,2-c]pyridin-5(4H)-yl)-2-methoxyphenoxy)methyl)cyclopropanecarbonitrile]
